In ChEMBL document CHEMBL5360574, “Optimization of potent, selective and orally bioavailable biphenyl scaffold as FABP4 inhibitors for anti-inflammation” (Eur J Med Chem, 2023):
The source made the active and inactive calls. The rule behind the calls is not given here.

Experiments:
[1] = molecular target: Fatty acid-binding protein, adipocyte (Homo sapiens, UniProt P15090); assay: Displacement of 1,8-ANS from FABP4 (unknown origin) assessed as inhibition constant by fluorescence based analysis
[2] = molecular target: Fatty acid-binding protein, heart (Homo sapiens, UniProt P05413); assay: Displacement of 1,8-ANS from FABP3 (unknown origin) assessed as inhibition constant by fluorescence based analysis
[3] = system: 3T3-L1; assay: Cytotoxicity against mouse 3T3-L1 cells assessed as reduction in cell growth at 100 uM measured after 24 hrs by CCK-8 assay; assay type: toxicity, cell-based; settings: 3t3-l1, 24 h
[4] = system: THP-1; assay: Cytotoxicity against human THP-1 cells assessed as reduction in cell growth at 80 uM measured after 24 hrs by CCK-8 assay; assay type: toxicity, cell-based; settings: thp-1, 24 h
[5] = Metabolic stability in mouse liver microsomes assessed as intrinsic clearance at 0.1 uM measured upto 60 mins in presence of NADPH by LC-MS/MS analysis; assay type: ADME, Microsome; settings: 1 h
[6] = Metabolic stability in mouse liver microsomes assessed as intrinsic clearance at 0.1 uM measured per gram protein measured upto 60 mins in presence of NADPH by LC-MS/MS analysis; assay type: ADME, Microsome; settings: 1 h
[7] = system: THP-1; assay: Antiinflammatory activity in LPS-induced human THP-1 cells assessed as reduction in MCP-1 mRNA expression at 25 uM incubated for 24 hrs by RT-PCR analysis; assay type: functional, cell-based
[8] = Metabolic stability in mouse liver microsomes assessed as half life at 0.1 uM measured upto 60 mins in presence of NADPH by LC-MS/MS analysis; assay type: ADME, Microsome
[9] = system: Mus musculus; assay: Antiinflammatory activity in LPS-induced acute inflammation C57BL/6J mouse model assessed as reduction in ALT level in serum at 50 mg/kg, po qd via gavage administered for 4 days followed by LPS induction; assay type: functional, organism-based; settings: time 4.0 day
[10] = system: Mus musculus; assay: Antiinflammatory activity in LPS-induced acute inflammation C57BL/6J mouse model assessed as reduction in AST level in serum at 50 mg/kg, po qd via gavage administered for 4 days followed by LPS induction; assay type: functional, organism-based; settings: time 4.0 day
[11] = Toxicity in LPS-induced acute inflammation C57BL/6J mouse model assessed as effect on spleen damage at 50 mg/kg, po qd via gavage administered for 4 days followed by LPS induction by hematoxylin and eosin staining based microscopic analysis; assay type: organism-based; settings: in vivo, 96 h, time 4 day
[12] = Toxicity in LPS-induced acute inflammation C57BL/6J mouse model assessed as effect on liver damage at 50 mg/kg, po qd via gavage administered for 4 days followed by LPS induction by hematoxylin and eosin staining based microscopic analysis; assay type: organism-based; settings: in vivo, 96 h, time 4 day
[13] = system: Mus musculus; assay: Antiinflammatory activity in LPS-induced acute inflammation C57BL/6J mouse model assessed as reduction in MCP-1 level in serum at 50 mg/kg, po qd via gavage administered for 4 days followed by LPS induction; assay type: functional, organism-based; settings: time 4.0 day
[14] = Toxicity in LPS-induced acute inflammation C57BL/6J mouse model assessed as change in body weight at 50 mg/kg, po qd via gavage administered for 4 days followed by LPS induction; assay type: organism-based; settings: in vivo, 96 h, time 4 day
[15] = Cmax in ICR mouse at 25 mg/kg, po measured upto 24 hrs by LC-MS/MS analysis; assay type: ADME, organism-based; design: dose 25 mg/kg, time < 24 hrs, route po; settings: in vivo
[16] = Tmax in ICR mouse at 25 mg/kg, po measured upto 24 hrs by LC-MS/MS analysis; assay type: ADME, organism-based; settings: in vivo
[17] = Clearance in ICR mouse at 3 mg/kg, iv measured upto 24 hrs by LC-MS/MS analysis; assay type: ADME, organism-based; settings: in vivo
[18] = Oral bioavailability in ICR mouse at 25 mg/kg measured upto 24 hrs by LC-MS/MS analysis; assay type: ADME, organism-based; settings: in vivo
[19] = AUC(0 to 24 hrs) in ICR mouse at 25 mg/kg, po measured upto 24 hrs by LC-MS/MS analysis; assay type: ADME, organism-based; design: time < 24 hrs, dose 25 mg/kg, route po; settings: in vivo
[20] = system: THP-1; assay: Antiinflammatory activity in LPS-induced human THP-1 cells assessed as inhibition of MCP-1 secretion at 1 uM pre-incubated with compound for 18 hrs followed by LPS induction measured after 6 hrs by ELISA method; assay type: functional, cell-based; settings: time 24.0 hrs
[21] = MRT in ICR mouse at 25 mg/kg, po measured upto 24 hrs by LC-MS/MS analysis; assay type: ADME, organism-based; settings: in vivo
[22] = Half life in ICR mouse at 3 mg/kg, iv measured upto 24 hrs by LC-MS/MS analysis; assay type: ADME, organism-based; settings: in vivo
[23] = AUC(0 to 24 hrs) in ICR mouse at 3 mg/kg, iv measured upto 24 hrs by LC-MS/MS analysis; assay type: ADME, organism-based; design: dose 3 mg/kg, time < 24 hrs, route iv; settings: in vivo
[24] = MRT in ICR mouse at 3 mg/kg, iv measured upto 24 hrs by LC-MS/MS analysis; assay type: ADME, organism-based; settings: in vivo
[25] = Half life in ICR mouse at 25 mg/kg, po measured upto 24 hrs by LC-MS/MS analysis; assay type: ADME, organism-based; settings: in vivo
[26] = Volume of distribution at steady state in ICR mouse at 3 mg/kg, iv measured upto 24 hrs by LC-MS/MS analysis; assay type: ADME, organism-based; settings: in vivo, read-out: Vdss

Sequence of Fatty acid-binding protein, adipocyte (P15090 whole entry): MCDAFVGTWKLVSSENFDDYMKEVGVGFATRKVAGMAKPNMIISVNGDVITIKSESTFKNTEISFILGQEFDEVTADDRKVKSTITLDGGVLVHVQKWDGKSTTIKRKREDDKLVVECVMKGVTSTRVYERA
Sequence of Fatty acid-binding protein, heart (P05413 whole entry): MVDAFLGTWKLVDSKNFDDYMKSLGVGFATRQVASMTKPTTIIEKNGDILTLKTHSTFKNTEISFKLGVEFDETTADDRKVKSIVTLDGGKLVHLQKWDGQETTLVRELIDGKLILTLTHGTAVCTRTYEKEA

Molecule `CC(C(=O)O)c1cccc(-c2cccc(Cl)c2-c2ccc3c(c2)CCO3)c1` (centres undefined) has a Ki [1] of 1470 nM.
With `O=C(O)c1ccccc1Nc1cccc(Cl)c1-c1ccc2c(c1)CCO2` the Ki [2] was 920 nM, the Activity [3] was “Non-Toxic” and the Activity [4] was “Non-Toxic”.
Work on `O=C(O)C1CCc2ccc(-c3cccc(Cl)c3-c3ccc4c(c3)OCO4)cc21` (centres undefined) yielded a Ki [1] of 790 nM.
For `O=C(O)c1cc(-c2cccc(Cl)c2-c2ccc3c(c2)CCO3)ccc1[N+](=O)[O-]`, the Ki [1] was 300 nM.
For `O=C(O)c1cc(-c2cccc(Cl)c2-c2ccc3occc3c2)ccc1C(F)(F)F`, the Ki [1] was 720 nM.
With `O=C(O)C1CCc2ccc(-c3cccc(Cl)c3-c3ccc4nonc4c3)cc21` (centres undefined) the Ki [1] was 2370 nM.
Work on `O=C(O)C1CCc2ccc(-c3cccc(Cl)c3OCC3CCCCC3)cc21` (centres undefined) yielded a Ki [1] of 1800 nM.
`O=C(O)C1CCc2ccc(-c3cccc(Cl)c3-c3ccc4occc4c3)cc21` (centres undefined) showed a Ki [1] of 690 nM.
With `Nc1ccc(-c2cccc(Cl)c2-c2ccc3c(c2)CCO3)cc1C(=O)O` the Ki [1] was 430 nM.
For `O=C(O)c1cc(-c2cccc(Cl)c2-c2ccc3c(c2)OCO3)ccc1C(F)(F)F`, the Ki [1] was 1690 nM.
Work on `O=C(O)C1CCc2ccc(-c3cccc(Cl)c3OCC3CCCC3)cc21` (centres undefined) yielded a Ki [1] of 1730 nM.
`O=C(O)CCc1cccc(-c2cccc(Cl)c2-c2ccc3c(c2)CCO3)c1` showed a Ki [1] of 1810 nM.
With `O=C(O)C1CCc2ccc(-c3cccc(Cl)c3-c3ccc4c(c3)CCO4)cc21` (centres undefined) the CLH [5] was 2.66 mL/min, the CLH [6] was 39.4 mL/min/g and the Activity [7] was “Active”. The Ki [1] was 580 nM, the Ki [2] was 18100 nM and the half-life at 0.1 µM [8] was 0.883 h. For the same molecule, the Activity [3] was “Non-Toxic” and the Activity [4] was “Non-Toxic”.
Work on `O=C(O)c1cccc(-c2cccc(Cl)c2-c2ccc3c(c2)CCO3)c1` yielded a Ki [1] of 480 nM.
With `O=C(O)C1CCc2ccc(-c3cccc(Cl)c3OCC3CCC3)cc21` (centres undefined) the Ki [1] was 750 nM.
For `O=C(O)C1CCc2ccc(-c3cccc(Cl)c3OCc3ccccc3)cc21` (centres undefined), the Ki [1] was 1320 nM.
With `O=C(O)c1cc(O)cc(-c2cccc(Cl)c2-c2ccc3c(c2)CCO3)c1` the Ki [1] was 550 nM.
Molecule `O=C(O)C1CCc2ccc(-c3cccc(Cl)c3OC3CCC3)cc21` (centres undefined) has a Ki [1] of 790 nM.
For `CCc1c(-c2ccccc2)c(-c2ccccc2)nn1-c1ccccc1-c1cccc(OCC(=O)O)c1`, the Activity [9] was “Active”, the Activity [7] was “Active” and the Activity [10] was “Active”. For the same molecule, the Activity [11] was “Non-Toxic”, the Activity [12] was “Non-Toxic” and the Activity [13] was “Active”. For the same molecule, the Activity [3] was “Non-Toxic”, the Activity [4] was “Non-Toxic” and the Activity [14] was “Non-Toxic”.
With `O=C(O)c1cc(-c2cccc(Cl)c2-c2ccc3nonc3c2)ccc1C(F)(F)F` the Ki [1] was 920 nM.
With `O=C(O)C1CCc2ccc(-c3cccc(Cl)c3-c3ccc4ocnc4c3)cc21` (centres undefined) the Ki [1] was 740 nM.
For `O=C(O)c1cc(-c2cccc(Cl)c2-c2ccc3c(c2)CCO3)ccc1O`, the Ki [1] was 280 nM.
`O=C(O)Cc1cccc(-c2cccc(Cl)c2-c2ccc3c(c2)CCO3)c1` showed a Ki [1] of 350 nM.
`CS(=O)(=O)Nc1ccc(-c2cccc(Cl)c2-c2ccc3c(c2)CCO3)cc1C(=O)O` gave a Ki [1] of 330 nM.
`O=C(O)c1cc(-c2cccc(Cl)c2-c2ccc3c(c2)CCO3)ccc1C(F)(F)F` showed a Cmax [15] of 15500 ng/mL, a Tmax [16] of 0.25 h and a CLH [5] of 0.266 mL/min. For the same molecule, the Activity [9] was “Active”, the CLH [6] was 3.94 mL/min/g and the Activity [7] was “Active”. For the same molecule, the clearance [17] was 12.5 mL/min/kg, the bioavailability [18] was 89.4% and the AUC(0-t) at 24 h [19] was 26800 ng·h/mL. The Activity [10] was “Active”, the Activity [11] was “Non-Toxic” and the Ki [1] was 510 nM. The Activity [12] was “Non-Toxic”, the Activity [20] was “Active” and the MRT [21] was 5.3 h. The half-life [22] was 5.64 h, the Ki [2] was 33000 nM and the half-life at 0.1 µM [8] was 8.9 h. The AUC(0-t) at 24 h [23] was 3600 ng·h/mL, the Activity [13] was “Active” and the Activity [3] was “Non-Toxic”. The Activity [4] was “Non-Toxic”, the Activity [14] was “Non-Toxic” and the MRT [24] was 4.04 h. It also gave a half-life [25] of 3.43 h and a Vd [26] of 3.32 L/kg.
With `O=C(O)C1CCc2ccc(-c3cccc(Cl)c3-c3ccc4[nH]ncc4c3)cc21` (centres undefined) the Ki [1] was 760 nM.
`Cc1ccc(-c2cccc(Cl)c2-c2ccc3c(c2)CCO3)cc1C(=O)O` showed a Ki [1] of 320 nM.
